Experimental findings from ChEMBL document CHEMBL1123145, “Synthesis of pyrrolizidine alkaloids indicine, intermedine, lycopsamine, and analogues and their N-oxides. Potential antitumor agents” (1985) are described below.

Each structure is given as a SMILES string.

What all share (assay type): functional, Mus musculus
Test [1] relates to P388. The test is described as follows: Survival rate of the animals determined for antitumor activity against P388 Lymphocytic Leukemia system at a dose of 35 mg/kg.
Test [2] relates to P388. The test is described as follows: Number of Survivors determined for antitumor activity against P388 Lymphocytic Leukemia system on day 5 at a dose of 8.75 mg/kg(6 out of 6).
Test [3] concerns P388. Nature of the test: Survival rate of the animals determined for antitumor activity against P388 Lymphocytic Leukemia system at a dose of 17.5 mg/kg.
Test [4] relates to P388. Nature of the test: Weight difference observed in survivors treated for antitumor activity against P388 Lymphocytic Leukemia system at a dose of 70 mg/kg.
Test [5] deals with P388. The test is described as follows: Weight difference observed in survivors treated for antitumor activity against P388 Lymphocytic Leukemia system at a dose of 17.5 mg/kg.
Test [6] has as its system P388. The test is described as follows: Number of Survivors determined for antitumor activity against P388 Lymphocytic Leukemia system on day 5 at a dose of 35 mg/kg (6 out of 6).
In test [7] the test system is P388. Nature of the test: Number of Survivors determined for antitumor activity against P388 Lymphocytic Leukemia system on day 5 at a dose of 17.5 mg/kg (6 out of 6).
In test [8] the test system is P388. The test is described as follows: Weight difference observed in survivors treated for antitumor activity against P388 Lymphocytic Leukemia system at a dose of 8.75 mg/kg.
Test [9] has as its system P388. Nature of the test: Survival rate of the animals determined for antitumor activity against P388 Lymphocytic Leukemia system at a dose of 8.75 mg/kg.
Test [10] deals with P388. Nature of the test: Weight difference observed in survivors treated for antitumor activity against P388 Lymphocytic Leukemia system at a dose of 35 mg/kg.
Test [11] relates to P388. The test is described as follows: Number of Survivors determined for antitumor activity against P388 Lymphocytic Leukemia system on day 5 at a dose of 70 mg/kg(6 out of 6).
Test [12] concerns P388. The test is described as follows: Survival rate of the animals determined for antitumor activity against P388 Lymphocytic Leukemia system at a dose of 70 mg/kg.
The test system of test [13] is P388. Nature of the test: Survival rate of the animals determined for antitumor activity against P388 Lymphocytic Leukemia system at a dose of 192 mg/kg.
Test [14] relates to P388. The test is described as follows: Survival rate of the animals determined for antitumor activity against P388 Lymphocytic Leukemia system at a dose of 48 mg/kg.
Test [15] concerns P388. The test is described as follows: Survival rate of the animals determined for antitumor activity against P388 Lymphocytic Leukemia system at a dose of 24 mg/kg.
In test [16] the test system is P388. The test is described as follows: Weight difference observed in survivors treated for antitumor activity against P388 Lymphocytic Leukemia system at a dose of 24 mg/kg.
The test system of test [17] is P388. The test is described as follows: Survival rate of the animals determined for antitumor activity against P388 Lymphocytic Leukemia system at a dose of 96 mg/kg.
Test [18] has as its system P388. Nature of the test: Weight difference observed in survivors treated for antitumor activity against P388 Lymphocytic Leukemia system at a dose of 96 mg/kg.
Test [19] has as its system P388. The test is described as follows: Weight difference observed in survivors treated for antitumor activity against P388 Lymphocytic Leukemia system at a dose of 48 mg/kg.

For orientation: T/C means the ratio of treated to control. On to `O=C(OCC1=CC[N+]2([O-])CC[C@@H](O)C12)c1ccccc1` (some centres undefined), for which the T/C in the test on P388 [1] is on record as 109%; with P388 [3], 110%; in the test with P388 [9], 107%; with P388 [12], 118%. Moreover, the Survivors in the test on P388 [2], in the test on P388 [6], in the test on P388 [7] and in the test with P388 [11] was 6 in each case. Further, the T-C in the test with P388 [4] was -1; in the test with P388 [5] it was -0.7; in the test with P388 [8] it was -0.4; with P388 [10], -0.1.

In the case of `CC(C)C(O)(C(=O)OCC1=CC[N+]2([O-])CC[C@@H](O)C12)C(C)O` (stereo in doubt; form 1), the T/C with P388 [13] was determined as 123%; with P388 [14], 114%; in the test on P388 [15], 107%; with P388 [17] it was 114%. The results for the T-C with P388 [16], in the test on P388 [18] and with P388 [19] were 0, -0.3 and -0.6, respectively.
